# Patent publication US5045566A, “Novel imidate insecticides” (ICI Americas Inc., priority 1989, dated 1991)
# Key:
# Format in all cases: in vivo
# [1] = system: Maize weevil [Sitophilus zeamais (Motschulsky)]; assay: Maize weevil on dipped corn seeds (MW), 48 hours; settings: percent in solution, adult weevils
# Procedure, shortened: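 LC50, given as percent of compound in dipping solution, comes from dosage-mortality curves over concentrations descending from 0.01%. Four corn seeds soaked 2-3 s in 50:50 acetone:water solution were dried and held with 10 adult weevils, about 25° C, mortality read after 48 h.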
# [2] = system: Housefly [Musca domestica]; assay: Housefly contact mortality in dishes (HF), 48 hours; settings: μg of test compound per 25 female flies
# Procedure, shortened: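 LC50, as μg compound per 25 female flies, comes from dosage-mortality curves with doses from 100 μg downward. Residues were made by evaporating acetone plus 0.01% peanut oil in dishes, onto which 1-2-day-old females were caged; deaths were counted after 48 hours.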
# [3] = system: Tobacco Budworm [Heliothis virescens (Fabricius)] eggs; assay: Tobacco budworm eggs (TBW-E); settings: percent in solution; 2-day old eggs
# Procedure, shortened: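 Paper-towel patches of 2-day-old eggs dipped in acetone solutions of compound (0.1% downward), held on larval rearing medium at 78° F. Mortality scored once all control eggs had hatched and larvae were feeding; LC50 from dosage-mortality curves, expressed as percent compound in solution.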
# [4] = system: Cabbage Looper [Trichoplusia ni (Hubner)]; assay: Cabbage looper leaf dip (CL), 3-5 days; settings: percent in solution, second-instar larvae
# Procedure, shortened: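 Squash cotyledons dipped 2-3 s in compound in 50-50 acetone-water, dried, then infested with 5 second-instar larvae and held at high humidity. Mortality scored after 3-5 days at concentrations from 0.1% downward. LC50 from dosage-mortality curves, expressed as percent compound in solution.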
# [5] = system: Black Bean Aphid [Aphis fabae (Scop.)]; assay: Black bean aphid spray test on nasturtium (BBA), 48 hours; settings: percent of test compound in sprayed solution
# Procedure, shortened: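 LC50, given as percent test compound in the sprayed liquid, was calculated from dosage-mortality curves using concentrations from 0.05% downward. Sprays in 50:50 acetone-water went to runoff on ~5 cm nasturtiums carrying 25-50 aphids of mixed ages, one day after infestation. Deaths were counted 48 h later under greenhouse conditions.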
# [6] = system: Aster Leafhopper [Macrosteles fascifrens (Stal)]; assay: Aster leafhopper on dipped oat seedlings (LH), 48 hours; settings: percent in solution, adults/nymphs
# Procedure, shortened: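 LC50 values, given as percent of test compound in the dip solution, were derived from dosage-mortality curves over concentrations from 0.05% downward. Mortality was counted 48 hours after ten leafhopper adults/nymphs were enclosed on treated seedlings. The seedlings were oats, about 10 cm tall, briefly dipped in 50-50 acetone-water.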
Structure (SMILES),LC50 MW [1],LC50 HF [2],LC50 TBW E (eggs) [3],LC50 CL [4],LC50 BBA [5],LC50 LH [6]
Fc1ccc(N=C(OCc2cccc(Oc3ccccc3)c2)C(F)(F)C(F)(F)F)cc1Cl [Compound 117],> 0.01%,55 µg,> 0.1%,0.006%,> 0.05%,0.0003%
CC(C)C(=Nc1ccc(F)c(Cl)c1)OCc1cccc(Oc2ccc(F)c(F)c2)c1 [Compound 217],0.0084%,8 µg,0.015%,0.00006%,0.001%,> 0.05%
CCC(=Nc1ccc(Cl)cc1)OCc1cccc(Oc2ccccc2)c1 [Compound 11],> 0.01%,6 µg,> 0.1%,0.025%,0.01%,> 0.05%
CC(C)C(=Nc1ccc(F)c(Cl)c1)OCc1cccc(Oc2ccccc2F)c1 [Compound 119],> 0.01%,27 µg,0.048%,0.0007%,> 0.05%,0.0008%
CCS(=O)(=O)c1ccc(N=C(OCc2cccc(Oc3ccccc3)c2)C(C)C)cc1Cl [Compound 112],> 0.01%,> 100 µg,> 0.1%,0.025%,0.05%,> 0.05%
CC(C)C(=Nc1ccc2c(c1)OCO2)OCc1cc(Oc2ccc(F)cc2)ccn1 [Compound 515],> 0.01%,28 µg,> 0.1%,0.0015%,> 0.05%,> 0.05%
CC1(C)C(C(=Nc2ccc(F)c(Cl)c2)OCc2cccc(Oc3ccccc3)c2)C1(C)C [Compound 124],> 0.01%,17 µg,> 0.1%,0.01%,> 0.05%,> 0.05%
COC(=O)c1ccc(N=C(OCc2cccc(Oc3ccccc3)c2)C(C)C)cc1 [Compound 151],> 0.01%,38 µg,> 0.1%,0.009%,0.006%,> 0.05%
CC(C)C(=Nc1ccc(F)c([N+](=O)[O-])c1)OCc1cccc(Oc2ccccc2)c1 [Compound 293],> 0.01%,19 µg,> 0.1%,0.0045%,> 0.05%,> 0.05%
CC(C)C(=Nc1cccc(C(F)(F)F)c1)OCC#CCOc1ccccc1 [Compound 548],> 0.01%,> 100 µg,> 0.1%,< 0.1%,> 0.05%,> 0.05%
COCc1c(F)c(F)c(COC(=Nc2ccc(C(C)(C)C)cc2)C(C)C)c(F)c1F [Compound 544],> 0.01%,> 100 µg,> 0.1%,> 0.1%,0.005%,> 0.05%
CC(C)C(=Nc1ccc(C#N)cc1)OCc1cccc(Oc2ccccc2)c1 [Compound 172],> 0.01%,5 µg,0.04%,0.002%,> 0.05%,> 0.05%
Cc1cc(N=C(OCc2ccc(F)c(Oc3ccc(F)cc3)c2)C(C)C)ccc1Br [Compound 359],> 0.01%,< 100 µg,0.023%,> 0.1%,0.0006%,0.05%
"C#CC(OC(=Nc1ccc(F)c(Cl)c1)C(C)C)c1cccc(Oc2ccccc2)c1 (stereo not drawn) [Compound 533, N-(3-chloro-4-fluorophenyl)-O-[1-(3-phenoxyphenyl)-2-propyn-1-yl]isobutyrimidate]",> 0.01%,60 µg,> 0.1%,> 0.1%,> 0.05%,> 0.05%
CC(C)C(=Nc1ccc(C(F)(F)F)cc1)OCc1cccc(Oc2ccc(Cl)cc2)c1 [Compound 365],> 0.01%,> 100 µg,0.038%,0.00025%,0.003%,< 0.05%
CC(C)C(=Nc1ccc(Br)c(C(F)(F)F)c1)OCc1ccc(F)c(Oc2ccc(F)cc2)c1 [Compound 364],> 0.01%,< 100 µg,0.025%,0.00045%,0.001%,< 0.05%
CC(C)C(=Nc1ccc(F)c(Cl)c1)OCc1cccc(Oc2ccccn2)c1 [Compound 549],> 0.01%,< 100 µg,> 0.1%,> 0.1%,> 0.05%,> 0.05%
Fc1ccc(N=C(OCc2cccc(Oc3ccccc3)c2)C(F)F)cc1 [Compound 50],> 0.01%,43 µg,> 0.05%,0.02%,0.01%,> 0.05%
CC(C)C(=Nc1cccc(C(F)(F)F)c1)OCc1cccc(Nc2ccc(F)cc2)c1 [Compound 513],> 0.01%,81 µg,> 0.1%,0.007%,> 0.05%,> 0.05%
CC(C)C(=Nc1cccc([N+](=O)[O-])c1)OCc1cccc(Oc2ccc(Cl)cc2)c1 [Compound 271],> 0.01%,27 µg,0.1%,0.0004%,> 0.05%,> 0.05%
N#CC(=Nc1ccc(Cl)cc1)OCc1cccc(Oc2ccccc2)c1 [Compound 21],> 0.01%,7 µg,> 0.1%,0.02%,> 0.1%,> 0.05%
CC(C)C(=Nc1ccc(-c2ccccc2)cc1)OCc1cccc(Oc2ccccc2)c1 [Compound 186],> 0.01%,> 100 µg,> 0.1%,0.008%,> 0.05%,> 0.05%
CC(C)C(=Nc1cccc(I)c1)OCc1cccc(Oc2ccc(F)cc2)c1 [Compound 255],> 0.01%,16 µg,0.075%,0.00017%,0.003%,0.0005%
CC(C)C(=Nc1cccc(C(F)(F)F)c1)OCc1ccnc(Oc2ccc(Cl)cc2)c1 [Compound 517],> 0.01%,80 µg,0.04%,0.0008%,> 0.05%,> 0.05%
c1ccc(Oc2cccc(COC(=Nc3ccc4c(c3)OCO4)C3CC3)c2)cc1 [Compound 177],0.01%,13 µg,> 0.1%,0.002%,0.01%,> 0.05%
CC(C)C(=Nc1ccc2c(c1)OCCO2)OCc1cccc(Oc2ccccc2)c1 [Compound 179],> 0.01%,13 µg,> 0.1%,0.004%,0.003%,0.005%
CSc1ccc(N=C(OCc2cccc(Oc3ccccc3)c2)C(C)C)cc1 [Compound 142],> 0.01%,15 µg,0.1%,0.005%,0.001%,> 0.05%
CC(C)C(=Nc1cccc(C(C)(C)C)c1)OCc1cccc(Oc2ccc(F)cc2)c1 [Compound 350],> 0.01%,> 100 µg,> 0.1%,0.0045%,> 0.05%,> 0.05%
CSc1cccc(N=C(OCc2ccc(F)c(Oc3ccccc3)c2)C(C)C)c1 [Compound 362],> 0.01%,< 100 µg,> 0.1%,> 0.1%,0.005%,> 0.05%
CC(C)C(=Nc1ccc(F)c(Cl)c1)OCc1cccc(Cc2ccccc2)c1 [Compound 541],> 0.01%,< 100 µg,> 0.1%,0.001%,0.004%,> 0.05%
